Experiment: gradient 5% acetonitrile 3 min, to 50% in 2 min, to 85% in 15 min, held 3 min, 100 µL/min
Conditions: column: Zorbax Extend-C18 2.1 x 50 mm; eluents: water / acetonitrile, 0.1% formic acid
In short: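 Over 3 months, pure standards in mixtures of ~100 molecules were run by HPLC coupled to a quadrupole time-of-flight mass spectrometer in positive and negative ionization mode. The column was a Zorbax Extend-C18 (2.1 × 50 mm, 1.8 μm) at 100 μL/min, eluted with water and acetonitrile each holding 0.1% formic acid, with 40 μL dead and 900 μL dwell volumes. Retention time was determined from adduct peaks chosen by software and checked manually.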

| Structure (SMILES) | RP-LC retention time [s] |
| --- | --- |
| Cc1ccc(CNC(=O)C2(C)Cn3cnc(C(=O)NC4CCCCC4)c3C(=O)N2C2CC2)cc1 (stereo unspecified) | 819 |
| O=C(CCCc1c[nH]c2ccccc12)N1CCN2CCS(=O)(=O)N(C3CC3)C(=O)C2C1 (stereo unspecified) | 824 |
| CC(=O)N1CCc2sc(S(=O)(=O)N3CCN(c4cccc(C)c4C)CC3)cc2C1 | 1030 |
| COCCCN1CCC(NC(=O)c2cc(Cl)c(N)c3c2OCC3)CC1 | 641 |
| CCn1cc(C(=O)Nc2cccc(Cl)c2)c(S(=O)(=O)N2CCSCC2)n1 | 890 |
| Cn1nnc2cc(C(=O)N3CCCCC3)ccc21 | 738 |
| O=C(Nc1sc2c(c1C(c1ccncc1)N1CCN(c3ccccn3)CC1)CCCC2)c1ccco1 (stereo unspecified) | 630 |
| CCc1nnc2ccc(-c3noc(-c4ccc(C)c(C)c4)n3)cn12 | 1140 |
| Cc1nc(-c2ccc(N3CCN(C(=O)c4cc(Cl)ccc4F)CC3)nc2)sc1C | 990 |
| Cn1c(N2CCCC(C(=O)NCc3ccc4c(c3)OCO4)C2)cc(=O)n(C)c1=O (stereo unspecified) | 671 |
| Cc1nc(C2(C)CCN(S(=O)(=O)c3ccccc3Cl)CC2)no1 | 911 |
| CC1CCN(C(=O)C2=CN(c3ccc(F)cc3)c3ccccc3S2(=O)=O)CC1 | 907 |
| c1cc(-c2nc(-c3ccc(-c4csc(C5CC5)n4)cc3)no2)ccn1 | 1290 |
| O=C(Cn1nc2c3cc(-c4ccc(Cl)cc4)nn3ccn2c1=O)Nc1cc(F)ccc1F | 1020 |
| COc1ccc(OCc2noc(CNS(=O)(=O)c3ccc4c(c3)CCCC4)n2)cc1 | 968 |
| O=C(O)c1cc(N2CCN(CC(=O)N3CCCCCC3)CC2)ccc1NC(=O)C1CC1 | 615 |
| CNc1nc(Nc2ccccc2Cl)nc2ccccc12 | 683 |
| Cc1noc(CN2CCN(C3CCN(Cc4cc(F)ccc4F)C3)C2=O)n1 (stereo unspecified) | 576 |
| O=C(NCc1ccc(-n2ccnc2)cc1)c1ccc(F)c(F)c1 | 625 |
| CCS(=O)(=O)N1CC(=O)N(c2cccc(F)c2)C(C)(C(=O)NC2CCCCC2)C1 (stereo unspecified) | 817 |

| Structure (SMILES) | RP-LC retention time [s] |
| --- | --- |
| Cc1[nH]nc(-c2c(C)sc(C)c2S(=O)(=O)Nc2cccc(Br)c2)c1C | 1130 |
| CCS(=O)(=O)N1CC(=O)N(c2ccccc2C)C(C)(C(=O)NCc2ccccc2)C1 (stereo unspecified) | 802 |
| CCc1ccc(NC(=O)CSc2nnc3c4cc(-c5ccc(OC)cc5)nn4ccn23)cc1 | 946 |
| Cc1ccc(-c2nc3nc(C)cc(C)n3c2Nc2cccc(C(F)(F)F)c2)cc1 | 817 |
| Cc1ccc(Nc2nc(-c3ccc(C)cc3)c(CC(=O)O)s2)cc1 | 946 |
| O=S(=O)(c1ccc(-c2nnc(C3CCC3)o2)o1)N1CCN(c2ccccc2)CC1 | 1090 |
| Cn1c(=O)n(Cc2ccccc2)c(=O)c2c1nc(N1CCNCC1)n2Cc1ccccc1 | 672 |
| Cc1sc(-c2nnc(C(C)C)o2)cc1NS(C)(=O)=O | 808 |
| O=C(CCCN1C(=O)c2cccc3cccc(c23)C1=O)Nc1ccon1 | 723 |
| O=C(c1ccco1)N1CCCCC1c1nc(C2CC2)n[nH]1 (stereo unspecified) | 625 |
| CCCc1nc(NCc2cccnc2)ncc1C(=O)O | 569 |
| Cc1csc(-c2cc(S(=O)(=O)N3CCCC3)cn2CC(=O)N2CCCC2)n1 | 803 |
| Cc1cc(C)cc(NC(=O)c2cc(C(C)C)n3nccc3n2)c1 | 1260 |
| O=C(C1CCN(S(=O)(=O)Cc2ccc(Cl)cc2)CC1)N1CCOCC1 | 725 |
| CCOC(=O)c1c(C)[nH]c(C(=O)N2CCCC(C(=O)NC3CCCC3)C2)c1C (stereo unspecified) | 759 |
| Cc1nnc(C2CC3(CCN(Cc4ccccc4)CC3)CN2CCc2ccccc2)o1 (stereo unspecified) | 638 |
| Cc1ccc(Cl)cc1S(=O)(=O)NCC(O)Cc1ccccc1 (stereo unspecified) | 858 |
| Cc1cccc(CNc2nnc(-c3nc(C4CC4)no3)c3ccccc23)c1 | 938 |
| CCCCNC(=O)Cn1c(C)nc2onc(CC)c2c1=O | 726 |

The remaining lines, values ahead:

| RP-LC retention time [s] | Structure (SMILES) |
| --- | --- |
| 822 | O=C(Cc1cccs1)N1CCN(c2ccc(=O)n(-c3cccc(Cl)c3)n2)CC1 |
| 851 | Cc1ccc(Cl)cc1N1CCN(c2cc(C(=O)O)c3cc(NC(=O)C4CCCC4)ccc3n2)CC1 |
| 594 | CN(C)c1cccc(C(=O)Nc2cccc(-c3nnc4n3CCCC4)c2)c1 |
| 672 | CCSc1nnc(NC(=O)C2CCCN(c3ccc(-c4ccco4)nn3)C2)s1 (stereo unspecified) |
| 763 | Cc1ncoc1C(=O)N1CCC(c2noc(-c3ccccc3)n2)C1 (stereo unspecified) |
| 1160 | O=C(c1cccs1)N(Cc1ccco1)c1nc2c(F)cc(F)cc2s1 |
| 1030 | Cc1ccc(NC(=O)C2CCCN(c3nc4ccsc4c(=O)n3Cc3ccc(F)cc3)C2)cc1 (stereo unspecified) |
| 1050 | O=C(Nc1ccc(F)c(F)c1)C1CCCN(c2nc3ccsc3c(=O)n2Cc2ccc(F)cc2)C1 (stereo unspecified) |
| 1190 | Cc1sc(NC(=O)c2cccc(Cn3cc(Br)cn3)c2)nc1-c1ccccc1 |
| 758 | O=C(NCc1ccccc1F)c1cn(-c2cc(N3CCOCC3)ncn2)cn1 |
| 733 | O=C(c1ccc2c(c1)Sc1ncccc1C(=O)N2C1CC1)N1CCCCC1 |
| 700 | COc1cccc(C(=O)NC2CCN(c3cc(-c4cccs4)[nH]n3)C2)c1 (stereo unspecified) |
| 625 | O=C(Nc1ccc(-c2nnc3n2CCCC3)cc1)c1cc(C2CC2)[nH]n1 |
| 1070 | Cc1ccc2[nH]cc(CCNC(=O)c3sc4ncccc4c3-n3cccc3)c2c1 |
| 720 | COc1ccc2nc(C(=O)N3CCCCC3)cc(Nc3ccc(F)c(F)c3)c2c1 |
| 808 | COc1ccc(-c2noc(C3CC(=O)N(c4ccc(F)cc4)C3)n2)cc1OC (stereo unspecified) |
| 833 | COc1cccc(NC(=O)N2CCc3c(c(-c4nnc(-c5ccc(F)cc5)o4)nn3C)C2)c1 |
| 856 | CCCc1cc(C2CCCN2C(=O)NCc2cccc(OC)c2)no1 (stereo unspecified) |
| 917 | COc1ccc(-c2nnc(-c3ccc(C)c(S(=O)(=O)NCc4cccs4)c3)o2)cc1OC |
| 616 | Cc1cc(=O)n(CC(=O)Nc2ccccc2F)c(N2CCCC2)n1 |
| 685 | COc1ccc(-c2nc3cccnc3n2C2CCN(C(=O)c3ccco3)C2)cc1 (stereo unspecified) |
| 735 | Cc1nc2cccnc2n1CC1CCCN(S(=O)(=O)c2cccc(Br)c2)C1 (stereo unspecified) |
| 855 | O=C(NCC1CCCO1)c1cccn1Cc1noc(-c2ccccc2)n1 (stereo unspecified) |
| 610 | COc1ccc(Nc2c(C(=O)N3CCCC(C)C3)cnc3nc(C)ccc23)cc1OC (stereo unspecified) |
| 648 | CCOC(=O)c1noc2nc(C)nc(NC3CCN(Cc4ccccc4)CC3)c12 |
| 740 | Cc1ccc(Cn2c(=O)n(CCNC(=O)C3CC3)c3ncccc32)cc1 |
| 641 | O=C(c1ccc2ncccc2c1)N1CCN(c2cc(-c3cccs3)[nH]n2)CC1 |
